According to patent US7569337B2, “Coumarines useful as biomarkers” (Novartis AG, priority 2002, dated 2009):

melting point: 290 °C (dec.)
Compound: O=c1oc2cc3c(cc2cc1-c1cn2cc(Cl)ccc2n1)CCCN3CCF [Example 2, 3-(6-Chloro-imidazo[1,2-a]pyridin-2-yl)-8-(2-fluoro-ethyl)-5,6,7,8-tetrahydro-1-oxa-8-aza-anthracen-2-one]
